From patent US10968203B2, “Pyrimidinyl-pyridyloxy-naphthyl compounds and methods of treating IRE1-related diseases and disorders” (Genentech, Inc., priority 2017, dated 2021)
Structures can show the parent of a compound that is named as a salt.

The molecules below were run on XBP1s-luc 293 LUC (assay: cellular PD assay, XBP1s-LUC reporter (Example 903)). Settings: Table 1; read-out: XBP1s-luc 293 LUC (IC50).
Assay type: cell-based
Method in brief: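 A luciferase fusion, in frame and expressed only when the XBP1 transcript is spliced, served as the readout of cellular IRE1α activity in an XBP1-Luc reporter line.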

Q: Cc1ccc2c(NS(=O)(=O)C3CCCC3)cccc2c1Oc1ncccc1-c1ccnc(N[C@H]2CCCNC2)n1 [Example 120, (S)—N-(6-Methyl-5-((3-(2-(piperidin-3-ylamino)pyrimidin-4-yl)pyridin-2-yl)oxy)naphthalen-1-yl)cyclopentanesulfonamide hydrochloride] was tested. Which IC50 did it give?
A: 180 nM

Q: With Cc1ccc2c(N3CC[C@H](C)C3=O)cccc2c1Oc1ncccc1-c1ccnc(N[C@H]2CCCNC2)n1 (single isomer, unassigned) [Example 257] as the molecule, how does the IC50 read?
A: 264 nM

Q: With Cc1ccc2c(NC(=O)C3CC3)c(F)ccc2c1Oc1ncccc1-c1ccnc(N[C@@H]2CNC[C@H](C)C2)n1 [Example 310, N-(2-Fluoro-6-methyl-5-((3-(2-(((3S,5R)-5-methylpiperidin-3-yl)amino)pyrimidin-4-yl)pyridin-2-yl)oxy)naphthalen-1-yl)cyclopropanecarboxamide] as the molecule, how does the IC50 read?
A: 135 nM

Q: Cc1cccc(S(=O)(=O)Nc2cccc3c(Oc4ncccc4-c4ccnc(N[C@H]5CCCNC5)n4)c(C)ccc23)n1 [Example 171, (S)-6-Methyl-N-(6-methyl-5-((3-(2-(piperidin-3-ylamino)pyrimidin-4-yl)pyridin-2-yl)oxy)naphthalen-1-yl)pyridine-2-sulfonamide] was tested. Which IC50 did it give?
A: 309 nM

Q: For Cc1ccc2c(NC(=O)CC3(C)CCCCC3)cccc2c1Oc1ncccc1-c1ccnc(N[C@H]2CCCNC2)n1 [Example 264, (S)—N-(6-Methyl-5-((3-(2-(piperidin-3-ylamino)pyrimidin-4-yl)pyridin-2-yl)oxy)naphthalen-1-yl)-2-(1-methylcyclohexyl)acetamide hydrochloride], which IC50 is on record?
A: 350 nM

Q: With CCN(C)S(=O)(=O)Nc1cccc2c(Oc3ncccc3-c3ccnc(N[C@H]4CCCNC4)n3)c(C)ccc12 [Example 113, 4-[2-[[5-[[Ethyl(methyl)sulfamoyl]amino]-2-methyl-1-naphthyl]oxy]-3-pyridyl]-2-[[(3S)-3-piperidyl]amino]pyrimidine hydrochloride] as the molecule, how does the IC50 read?
A: 343 nM

Q: Cc1ccc2c(NS(=O)(=O)CCC(C)C)c(F)ccc2c1Oc1ncccc1-c1ccnc(N[C@H]2CCCNC2)n1 [Example 243, (S)—N-(2-Fluoro-6-methyl-5-((3-(2-(piperidin-3-ylamino)pyrimidin-4-yl)pyridin-2-yl)oxy)naphthalen-1-yl)-3-methylbutane-1-sulfonamide] was tested. Which IC50 did it give?
A: 68 nM

Q: With Cc1ccc2c(NS(=O)(=O)CC3CCCC3)cccc2c1Oc1ncccc1-c1ccnc(N[C@H]2CCCNC2)n1 [Example 128, (S)-1-Cyclopentyl-N-(6-methyl-5-((3-(2-(piperidin-3-ylamino)pyrimidin-4-yl)pyridin-2-yl)oxy)naphthalen-1-yl)methanesulfonamide] as the molecule, how does the IC50 read?
A: 317 nM

Q: With Cc1ccc2c(N3CCCC3=O)c(F)ccc2c1Oc1ncccc1-c1ccnc(N[C@H]2CCCNC2)n1 [Example 335, (S)-1-(2-Fluoro-6-methyl-5-((3-(2-(piperidin-3-ylamino)pyrimidin-4-yl)pyridin-2-yl)oxy)naphthalen-1-yl)pyrrolidin-2-one] as the molecule, how does the IC50 read?
A: 384 nM

Q: How did the IC50 turn out when Cc1ccc2c(NS(=O)(=O)Cc3ccccc3)cccc2c1Oc1ncccc1-c1ccnc(N[C@H]2CCCNC2)n1 [Example 112, (S)—N-(6-Methyl-5-((3-(2-(piperidin-3-ylamino)pyrimidin-4-yl)pyridin-2-yl)oxy)naphthalen-1-yl)-1-phenylmethanesulfonamide hydrochloride] was run?
A: 21 nM

Q: Which IC50 does the source give for Cc1ccc2c(NC[C@H](O)CF)cccc2c1Oc1ncccc1-c1ccnc(N[C@H]2CCCNC2)n1 (single isomer, unassigned) [Example 333] here?
A: 44.6 nM

Q: For Cc1ccc2c(NS(=O)(=O)CCC(F)(F)F)cccc2c1Oc1ncccc1-c1ccnc(N[C@H]2CCCNC2)n1 [Example 123, (S)-3,3,3-Trifluoro-N-(6-methyl-5-((3-(2-(piperidin-3-ylamino)pyrimidin-4-yl)pyridin-2-yl)oxy)naphthalen-1-yl)propane-1-sulfonamide hydrochloride], which IC50 is on record?
A: 84 nM

Q: How did the IC50 turn out when Cc1ccc2c(NS(=O)(=O)CC3CCOCC3)cccc2c1Oc1ncccc1-c1ccnc(N[C@H]2CCCNC2)n1 [Example 133, (S)—N-(6-Methyl-5-((3-(2-(piperidin-3-ylamino)pyrimidin-4-yl)pyridin-2-yl)oxy)naphthalen-1-yl)-1-(tetrahydro-2H-pyran-4-yl)methanesulfonamide hydrochloride] was run?
A: 158 nM

Q: How did the IC50 turn out when Cc1ccc2c(NC(=O)CC3CCCCC3)c(F)ccc2c1Oc1ncccc1-c1ccnc(N[C@@H]2CNC[C@H](C)C2)n1 [Example 366, 2-Cyclohexyl-N-(2-fluoro-6-methyl-5-((3-(2-(((3S,5R)-5-methylpiperidin-3-yl)amino)pyrimidin-4-yl)pyridin-2-yl)oxy)naphthalen-1-yl)acetamide] was run?
A: 101 nM

Q: Which IC50 does the source give for Cc1ccc2c(NC(=O)CC#N)cccc2c1Oc1ncccc1-c1ccnc(N[C@H]2CCCNC2)n1 [Example 183, (S)-2-Cyano-N-(6-methyl-5-((3-(2-(piperidin-3-ylamino)pyrimidin-4-yl)pyridin-2-yl)oxy)naphthalen-1-yl)acetamide] here?
A: 260 nM

Q: How did the IC50 turn out when CC[C@H]1CCN(c2cccc3c(Oc4ncccc4-c4ccnc(N[C@H]5CCCNC5)n4)c(C)ccc23)C1=O (single isomer, unassigned) [Example 355] was run?
A: 365 nM

Q: CO[C@H]1CNC[C@@H](Nc2nccc(-c3cccnc3Oc3c(C)ccc4c(NS(=O)(=O)Cc5ccccc5)cccc34)n2)C1 [Example 161, N-(5-((3-(2-(((3S,5R)-5-Methoxypiperidin-3-yl)amino)pyrimidin-4-yl)pyridin-2-yl)oxy)-6-methylnaphthalen-1-yl)-1-phenylmethanesulfonamide] was tested. Which IC50 did it give?
A: 46 nM

Q: Which IC50 does the source give for Cc1ccc2c(NS(=O)(=O)Cc3ccccc3C(F)(F)F)c(F)ccc2c1Oc1ncccc1-c1ccnc(N[C@H]2CCCNC2)n1 [Example 392, (S)—N-(2-Fluoro-6-methyl-5-((3-(2-(piperidin-3-ylamino)pyrimidin-4-yl)pyridin-2-yl)oxy)naphthalen-1-yl)-1-(2-(trifluoromethyl)phenyl)methanesulfonamide] here?
A: 6.32 nM

Q: Cc1ccc2c(NC(=O)C3(C)CC3)cccc2c1Oc1ncccc1-c1ccnc(N[C@H]2CCCNC2)n1 [Example 154, (S)-1-Methyl-N-(6-methyl-5-((3-(2-(piperidin-3-ylamino)pyrimidin-4-yl)pyridin-2-yl)oxy)naphthalen-1-yl)cyclopropane-1-carboxamide] was tested. Which IC50 did it give?
A: 239 nM

Q: With Cc1ccc2c(NC(=O)CC(C)(C)C)cccc2c1Oc1ncccc1-c1ccnc(N[C@H]2CCCNC2)n1 [Example 198, (S)-3,3-Dimethyl-N-(6-methyl-5-((3-(2-(piperidin-3-ylamino)pyrimidin-4-yl)pyridin-2-yl)oxy)naphthalen-1-yl)butanamide] as the molecule, how does the IC50 read?
A: 161 nM

Q: Which IC50 does the source give for CC[C@@H](O)CNc1cccc2c(Oc3ncccc3-c3ccnc(N[C@H]4CCCNC4)n3)c(C)ccc12 [Example 312, (R)-1-((6-Methyl-5-((3-(2-((S)-piperidin-3-ylamino)pyrimidin-4-yl)pyridin-2-yl)oxy)naphthalen-1-yl)amino)butan-2-ol] here?
A: 27.4 nM

Q: Which IC50 does the source give for Cc1ccc2c(NC(=O)CC(C)(C)C)c(F)ccc2c1Oc1ncccc1-c1ccnc(N[C@H]2CCCNC2)n1 [Example 275, (S)—N-(2-Fluoro-6-methyl-5-((3-(2-(piperidin-3-ylamino)pyrimidin-4-yl)pyridin-2-yl)oxy)naphthalen-1-yl)-3,3-dimethylbutanamide] here?
A: 75 nM

Q: Cc1ccc2c(NC[C@@H](C)O)cccc2c1Oc1ncccc1-c1ccnc(N[C@H]2CCCNC2)n1 [Example 300, (R)-1-((6-Methyl-5-((3-(2-((S)-piperidin-3-ylamino)pyrimidin-4-yl)pyridin-2-yl)oxy)naphthalen-1-yl)amino)propan-2-ol] was tested. Which IC50 did it give?
A: 55.4 nM

Q: With Cc1ccc2c(NS(=O)(=O)Cc3ccncc3)cccc2c1Oc1ncccc1-c1ccnc(N[C@H]2CCCNC2)n1 [Example 167, (S)—N-(6-Methyl-5-((3-(2-(piperidin-3-ylamino)pyrimidin-4-yl)pyridin-2-yl)oxy)naphthalen-1-yl)-1-(pyridin-4-yl)methanesulfonamide] as the molecule, how does the IC50 read?
A: 19 nM

Same assay, conditions: Table 2; read-out: XBP1s-luc 293 LUC (IC50)

Q: Cc1ccc2c(NS(=O)(=O)CC3CC(F)(F)C3)c(F)ccc2c1Oc1ncccc1-c1ccnc(N[C@H]2CCCNC2)n1 [Example 433, (S)-1-(3,3-Difluorocyclobutyl)-N-(2-fluoro-6-methyl-5-((3-(2-(piperidin-3-ylamino)pyrimidin-4-yl)pyridin-2-yl)oxy)naphthalen-1-yl)methanesulfonamide] was tested. Which IC50 did it give?
A: 76 nM

Q: Cc1ccc2c(NC[C@@H](C#N)C(C)C)cccc2c1Oc1ncccc1-c1ccnc(N[C@H]2CCCNC2)n1 [Example 423, (S)-3-Methyl-2-(((6-methyl-5-((3-(2-(((S)-piperidin-3-yl)amino)pyrimidin-4-yl)pyridin-2-yl)oxy)naphthalen-1-yl)amino)methyl) butanenitrile] was tested. Which IC50 did it give?
A: 207 nM

Q: CCC(F)(F)CS(=O)(=O)Nc1c(F)ccc2c(Oc3ncccc3-c3ccnc(N[C@H]4CCCNC4)n3)c(C)ccc12 [Example 456, (S)-2,2-Difluoro-N-(2-fluoro-6-methyl-5-((3-(2-(piperidin-3-ylamino)pyrimidin-4-yl)pyridin-2-yl)oxy)naphthalen-1-yl)butane-1-sulfonamide hydrochloride] was tested. Which IC50 did it give?
A: 11 nM

Q: Which IC50 does the source give for Cc1nc(CS(=O)(=O)Nc2c(F)ccc3c(Oc4ncccc4-c4ccnc(N[C@H]5CNC[C@H](F)C5)n4)c(C)ccc23)cs1 (single isomer, unassigned) [Example 491, hydrochloride] here?
A: 117 nM

Q: How did the IC50 turn out when COc1c(Cl)cccc1CS(=O)(=O)Nc1c(F)ccc2c(Oc3ncccc3-c3ccnc(N[C@H]4CCCNC4)n3)c(C)ccc12 [Example 437, (S)-1-(3-Chloro-2-methoxyphenyl)-N-(2-fluoro-6-methyl-5-((3-(2-(piperidin-3-ylamino)pyrimidin-4-yl)pyridin-2-yl)oxy)naphthalen-1-yl)methanesulfonamide hydrochloride] was run?
A: 18 nM

Q: For Cc1ccc2c(NS(=O)(=O)Cc3ccc(OC(F)(F)F)cc3)c(F)ccc2c1Oc1ncccc1-c1ccnc(N[C@H]2CCCNC2)n1 [Example 419, (S)—N-(2-Fluoro-6-methyl-5-((3-(2-(piperidin-3-ylamino)pyrimidin-4-yl)pyridin-2-yl)oxy)naphthalen-1-yl)-1-(4-(trifluoromethoxy)phenyl)methanesulfonamide hydrochloride], which IC50 is on record?
A: 129 nM
